Measured values as given in ChEMBL document CHEMBL1201862, “PubChem BioAssay data set” (2004).
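1) Cells in 96-well plates. 2) Compound, 48 h, 5 concentrations. 3) Linear interpolation between surrounding doses. 4) Unreached endpoint = highest concentration. Abbreviation: GI50, concentration required for 50% inhibition of growth.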 Calls of active or inactive are those of the source. Cut-off read from the data, not from the text of the source: active = GI50 up to about 1.1 µM and inactive = higher. Residues, ends and D or L forms follow the SMILES beside them. *: point of attachment. Bn = c1ccc(C*)cc1

Experiments:
Experiment in all cases: inhibition of tumour cell growth, NCI panel, 48 h
[1] = test system: A549
[2] = test system: ACHN
[3] = test system: DLD-1
[4] = test system: HCT-116
[5] = test system: HL-60
[6] = test system: HT-29
[7] = test system: K562
[8] = test system: NCI-H460
[9] = test system: OVCAR-4
[10] = test system: SF-295
[11] = test system: SF-539
[12] = test system: SK-MEL-28
[13] = test system: SN12C
[14] = test system: UACC-257
[15] = test system: UO-31
[16] = test system: HOP-62
[17] = test system: IGROV-1
[18] = test system: RPMI-8226
[19] = test system: BT-549
[20] = test system: PC-3

Row | SMILES | GI50 [1] | GI50 [2] | GI50 [3] | GI50 [4] | GI50 [5] | GI50 [6] | GI50 [7] | GI50 [8] | GI50 [9] | GI50 [10] | GI50 [11] | GI50 [12] | GI50 [13] | GI50 [14] | GI50 [15] | GI50 [16] | GI50 [17] | GI50 [18] | GI50 [19] | GI50 [20]
1 | O=C(NN1C(=O)C(Cl)C1c1ccccc1Cl)c1ccccc1O (stereo not given) | > 100 µM (inactive) | > 100 µM (inactive) | > 100 µM (inactive) | > 100 µM (inactive) | > 100 µM (inactive) | > 100 µM (inactive) | > 100 µM (inactive) | > 100 µM (inactive) | > 100 µM (inactive) | > 100 µM (inactive) | > 100 µM (inactive) | > 100 µM (inactive) | > 100 µM (inactive) | > 100 µM (inactive) | > 100 µM (inactive) |  |  |  |  | 
2 | Cc1ccc(NC(=O)/C(Cl)=C(/Cl)C(=O)O)cc1 | 69.8 µM (inactive) | 16.5 µM (inactive) | 16.4 µM (inactive) | 15 µM (inactive) | 1.64 µM (inactive) | 18.3 µM (inactive) | 3.57 µM (inactive) | > 100 µM (inactive) | 18.2 µM (inactive) | 30.2 µM (inactive) |  | 18.9 µM (inactive) | 18.5 µM (inactive) | 22 µM (inactive) | 17.8 µM (inactive) | 71.4 µM (inactive) | 29.6 µM (inactive) | 14.8 µM (inactive) |  | 
3 | CCOc1ccccc1Nc1nc(C)c(C(=O)CC(=O)C(=O)Nc2ccccc2)s1 | 62.8 µM (inactive) | 37.8 µM (inactive) | 37.3 µM (inactive) | 51.8 µM (inactive) | 20.3 µM (inactive) | 37.1 µM (inactive) | 34.8 µM (inactive) | 49.7 µM (inactive) | 11 µM (inactive) | 54.1 µM (inactive) | > 100 µM (inactive) | > 100 µM (inactive) | 34.8 µM (inactive) | 50.9 µM (inactive) | 32.2 µM (inactive) | > 100 µM (inactive) | > 100 µM (inactive) |  |  | 
4 | O=C(c1ccccc1F)c1c(NCc2ccccc2)c(=O)c1=O | > 100 µM (inactive) | > 100 µM (inactive) |  | > 100 µM (inactive) | > 100 µM (inactive) | > 100 µM (inactive) | > 100 µM (inactive) | > 100 µM (inactive) | > 100 µM (inactive) | > 100 µM (inactive) | > 100 µM (inactive) | > 100 µM (inactive) | > 100 µM (inactive) | > 100 µM (inactive) | > 100 µM (inactive) | > 100 µM (inactive) | 55.7 µM (inactive) | > 100 µM (inactive) | > 100 µM (inactive) | > 100 µM (inactive)
5 | O=C1C=CC2(O[C@H](c3ccccc3)[C@@H](c3ccccc3)O2)C(SC(=O)c2ccccc2)C1 (stereo not given in full) | 4.49 µM (inactive) | 1.37 µM (inactive) |  | 0.355 µM (active) | 1.84 µM (inactive) | 2.03 µM (inactive) | 1.32 µM (inactive) | 3.02 µM (inactive) | 1.63 µM (inactive) | 2.91 µM (inactive) | 1.75 µM (inactive) | 1.79 µM (inactive) | 2.33 µM (inactive) | 1.79 µM (inactive) | 1.37 µM (inactive) | 1.38 µM (inactive) | 1.52 µM (inactive) | 0.979 µM (active) | 0.433 µM (active) | 2.13 µM (inactive)
6 | C[C@@H]1CCC[C@]2(C)O[C@H]2CC[C@@](C)(O)[C@@H]2CC3=C(CO)C(=O)O[C@H]3[C@H]1O2 | > 50 µM (inactive) | > 50 µM (inactive) |  | > 50 µM (inactive) | > 5 µM (inactive) | > 50 µM (inactive) | > 50 µM (inactive) | > 50 µM (inactive) | > 50 µM (inactive) | > 50 µM (inactive) | > 50 µM (inactive) | > 50 µM (inactive) | > 50 µM (inactive) | > 50 µM (inactive) | > 50 µM (inactive) | > 50 µM (inactive) | 25.5 µM (inactive) | 28.1 µM (inactive) | > 50 µM (inactive) | > 50 µM (inactive)
7 | CCOC(=O)C1=C(C)N(Cc2ccccc2)C2(O)C=CC(O)=C3C(=O)c4ccccc4C(=O)C312 (stereo not given) | 15.3 µM (inactive) | 17.4 µM (inactive) |  | 10.2 µM (inactive) | 15.1 µM (inactive) | 31.5 µM (inactive) | 15.1 µM (inactive) | 11.3 µM (inactive) | 15.4 µM (inactive) | 10.3 µM (inactive) | 16.3 µM (inactive) | 28.6 µM (inactive) | 13.5 µM (inactive) | 17.2 µM (inactive) | 9.73 µM (inactive) | 14.2 µM (inactive) | 4.16 µM (inactive) | 9.42 µM (inactive) | 0.541 µM (active) | 19.2 µM (inactive)
8 | CN(C)c1ccc(/C=C/C=C(/C#N)c2ccccc2)cc1 | 32.1 µM (inactive) | 34.4 µM (inactive) |  | 16.4 µM (inactive) | 2.74 µM (inactive) | 7.57 µM (inactive) | 4.22 µM (inactive) | 25.5 µM (inactive) | > 38.6 µM (inactive) | 26.8 µM (inactive) | 16.4 µM (inactive) | > 82.4 µM (inactive) | 45.4 µM (inactive) | 40.7 µM (inactive) | > 46 µM (inactive) | 19 µM (inactive) | 21.4 µM (inactive) | 21.9 µM (inactive) | > 100 µM (inactive) | 39.3 µM (inactive)
9 | O=C(N/C(=C/c1ccc(Cl)cc1Cl)c1nc2ccccc2s1)c1ccccc1 | 18.1 µM (inactive) | 6.56 µM (inactive) |  | 6.78 µM (inactive) | 32.4 µM (inactive) | 19.3 µM (inactive) | 18.5 µM (inactive) | 17.8 µM (inactive) | 15.5 µM (inactive) | 12.7 µM (inactive) | 15.5 µM (inactive) | 15.6 µM (inactive) | 9.68 µM (inactive) | 13.4 µM (inactive) | 13.6 µM (inactive) | 10.8 µM (inactive) | 11.1 µM (inactive) | 12.1 µM (inactive) | 21.1 µM (inactive) | 18 µM (inactive)
10 | CN(C)CCNC(=O)c1cccc2c1nc(-c1ccc(F)cc1)c1ccccc12 | 0.935 µM (active) | 2.64 µM (inactive) | 2.45 µM (inactive) | 2.46 µM (inactive) | 1.22 µM (inactive) | 3.85 µM (inactive) | 2.44 µM (inactive) | 0.417 µM (active) | 5.94 µM (inactive) | 6.05 µM (inactive) | 3.63 µM (inactive) | 7.76 µM (inactive) | 2.77 µM (inactive) | 2.95 µM (inactive) | 1.64 µM (inactive) | 1.22 µM (inactive) | 2.84 µM (inactive) |  |  | 
11 | CC(=O)/C(=N\O)C(=O)NCc1ccccc1 | > 100 µM (inactive) | > 100 µM (inactive) | > 100 µM (inactive) | > 100 µM (inactive) | > 100 µM (inactive) | > 100 µM (inactive) | 36.4 µM (inactive) | 35.2 µM (inactive) |  | > 100 µM (inactive) | > 100 µM (inactive) | > 100 µM (inactive) | > 100 µM (inactive) | > 100 µM (inactive) | > 100 µM (inactive) | > 100 µM (inactive) | > 100 µM (inactive) | > 100 µM (inactive) |  | 
12 | COC(=O)C1Cc2c([nH]c3ccccc23)[C@H](CC(C)C)N1 (stereo not given in full) | > 100 µM (inactive) | > 100 µM (inactive) | > 100 µM (inactive) | > 100 µM (inactive) | > 100 µM (inactive) | > 100 µM (inactive) | > 100 µM (inactive) |  |  | > 100 µM (inactive) | > 100 µM (inactive) | > 100 µM (inactive) | > 100 µM (inactive) | > 100 µM (inactive) | > 100 µM (inactive) | > 100 µM (inactive) | > 100 µM (inactive) | > 100 µM (inactive) |  | 
13 | CC(O)c1cc2c(s1)C(=O)c1scc(C(C)O)c1C2=O (stereo not given) | 0.67 µM (active) | 0.853 µM (active) |  | 0.659 µM (active) | 0.646 µM (active) | 2.43 µM (inactive) | 0.597 µM (active) | 0.757 µM (active) | 0.745 µM (active) | 0.168 µM (active) | 0.23 µM (active) | 0.279 µM (active) | 0.53 µM (active) | 0.176 µM (active) | 0.337 µM (active) | 0.973 µM (active) | 1.68 µM (inactive) | 0.579 µM (active) | 0.211 µM (active) | 0.388 µM (active)
14 | COC(=O)C(CC(C)C)NC(=O)C(N)Cc1ccc(OCc2ccccc2)cc1 (stereo not given) (H-Tyr(Bn)-Leu-OMe; configuration not given here) | > 10 µM (inactive) | > 10 µM (inactive) |  | > 10 µM (inactive) | 2.54 µM (inactive) | > 10 µM (inactive) | > 10 µM (inactive) | > 10 µM (inactive) | > 10 µM (inactive) | > 10 µM (inactive) | > 10 µM (inactive) | > 10 µM (inactive) | > 10 µM (inactive) | > 10 µM (inactive) | > 10 µM (inactive) | > 10 µM (inactive) | > 10 µM (inactive) | > 10 µM (inactive) | > 10 µM (inactive) | > 10 µM (inactive)
15 | NC(Cc1ccccc1)C(=O)O (stereo not drawn) [DL-PHENYLALANINE] | > 100 µM (inactive) | > 100 µM (inactive) |  | > 100 µM (inactive) | > 100 µM (inactive) | > 100 µM (inactive) | > 100 µM (inactive) | > 100 µM (inactive) | > 100 µM (inactive) | > 100 µM (inactive) | > 100 µM (inactive) | > 100 µM (inactive) | > 100 µM (inactive) | > 100 µM (inactive) | > 100 µM (inactive) | > 100 µM (inactive) | > 100 µM (inactive) | > 100 µM (inactive) | > 100 µM (inactive) | > 100 µM (inactive)
